# Test results taken from patent US9539298B2, “Lissencephaly therapeutic agent” (OSAKA CITY UNIVERSITY, priority 2010, dated 2017).
# Test system: fibroblasts established from LIS1 heterozygous mice (MEF)
# Experiment: Change in intracellular protein localization by SNJ-1945 (immunocytochemistry)
# Assay type: cell-based, mouse
# Conditions: 200 μM, 2 hours
# Description: A LIS1 gene hetero-deficient mice group and a wild-type mice (12.5- to 14.5-day-old embryos) group each consisting of five mice were prepared, and fibroblasts (MEF; mouse embryonic fibroblast) were established from each group in the same manner as above (more specifically, fibroblasts were established by grouping the same gene type). Using the cells, immunocytochemistry was performed as follows. The influence of SNJ-1945 on intracellular protein localization in each cell was analyzed. First, a slide glass (24×24 mm; Matsunami Glass Ind., Ltd.) washed beforehand with 0.1 N hydrochloric acid was placed on a 6-well plate (Nunc), and MEF cells were seeded in an amount of 1.0×10^5 cells per well in a D-MEM culture solution (containing 10% fetal bovine blood serum; Wako Pure Chemical Ind. Ltd.). Subsequently, the 6-well plate was cultured overnight at 37° C. under 5% CO2, and SNJ-1945 was added thereto so that the final concentration became 200 μM. The incubation was performed for another 2 hours under the same conditions.
# As a control experiment, the same experiment was performed by adding 1% dimethylsulfoxide (DMSO). After washing with phosphate buffer (PBS), the MEF cells were immobilized using 4% paraformaldehyde (Wako, 162-16065) (at room temperature, for 15 minutes). […] After incubation, the cells were washed well with PBS, and embedded using glycerol (Merck) for fluorescence microscope observation. […]
# After careful observation using a confocal laser microscope (TCS-SP5, Leica), the intracellular locations of the individual factors in MEF cells under varying conditions are classified into “cells clustered around the nucleus” and “cells distributed to the entire cytoplasm.” For each cell group, 10 samples, each of which consists of 10 arbitrarily extracted cells, i.e., 100 cells in total for each group, were evaluated, and the average value±standard deviation was calculated. […]
smiles,measurement,setting,value
"COCCOCCOC(=O)N[C@@H](CC(C)C)C(=O)N[C@@H](Cc1ccccc1)C(=O)C(=O)NC1CC1 [compound 17, ((1S)-1-((((1S)-1-Benzyl-2,3-dioxo-3-(cyclopropylamino)propyl)amino)carbonyl)-3-methylbutyl)carbamic acid 5-methoxy-3-oxapentyl ester]",LIS1 amount around the centrosome (intracellular localization),FIG. 2,the LIS1 amount can be recovered
same,cytoplasmatic dynein amount / localization,FIG. 3,the cytoplasmatic dynein amount can also be recovered
same,β-COP distribution,FIG. 4,the distribution is normalized
